Results: patent publication US20060069132A1, “Azolecarboxamide herbicides” (priority 2004, published 2006)

Legend:
morningglory [1] = experiment: Test B pre-/postemergence herbicide test; type: in vivo, Ipomoea coccinea; conditions: for Morningglory plant response rating: postemergence
Outline: (§1)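 Pre: seeds sown, then sprayed. Post: 1–4-leaf plants (2–18 cm) sprayed at the same time. Paddy: flooded, treated at 2-leaf stage. Formulation: non-phytotoxic solvent with surfactant. Greenhouse 13–15 days; visual 0–100 score relative to controls.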

redroot pigweed = experiment: Test A pre-/postemergence herbicide test; type: in vivo, Amaranthus retroflexus
Outline: (§2)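 Pre: seeded sandy loam, directed soil spray, compound in non-phytotoxic solvent + surfactant. Post: 1–2-leaf plants (2–10 cm), sprayed to runoff. Greenhouse ~10 d; visual injury vs untreated, 0–100 scale.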

barnyardgrass [2] = experiment: Test B pre-/postemergence herbicide test; type: in vivo, Echinochloa crus-galli; conditions: for Barnyardgrass plant response rating: postemergence
Outline: as §1

rice [3] = experiment: Test B flooded paddy test; type: in vivo, Oryza sativa; conditions: 1000 g ai/ha, scale 0 to 100 (0 no effect, 100 complete control)
Outline: (§3)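 Read-out: visual comparison with controls, scored 0 to 100, where 100 means complete control and 0 no effect. Formulated chemicals were applied postemergence to plants 2–18 cm tall (1- to 4-leaf), or to flooded-paddy plants at the 2-leaf stage, then held 13 to 15 days under glass.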

blackgrass = experiment: Test B postemergence herbicide test; type: in vivo, Alopecurus myosuroides; conditions: postemergence
Outline: as §3

cocklebur = experiment: Test B pre-/postemergence herbicide test; type: in vivo, Xanthium strumarium; conditions: for Cocklebur plant response rating: postemergence
Outline: as §1

wheat = experiment: Test B postemergence herbicide test; type: in vivo, Triticum aestivum; design: key to Wheat plant response rating: 0 = no effect, 100 = complete control; conditions: postemergence
Outline: as §3

giant foxtail [4] = experiment: Test A pre-/postemergence herbicide test; type: in vivo, Setaria faberi
Outline: as §2

rice [5] = experiment: Test B pre-/postemergence herbicide test; type: in vivo, Oryza sativa; conditions: 0 = no effect, 100 = complete control, preemergence
Outline: (§4)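 Visual rating, 0 (no effect) to 100 (complete control), versus untreated controls after 13–15 d in greenhouse. Pre- and postemergence applications (postemergence plants 2–18 cm, 1–4 leaves); flooded paddy arm at 2-leaf stage. Compounds in non-phytotoxic solvent plus surfactant.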

[6] = tested on: small flower umbrella sedge; experiment: Test B flooded paddy test; type: in vivo, Cyperus difformis; conditions: 1000 g ai/ha, scale 0 to 100 (0 no effect, 100 complete control)
Outline: as §3

pigweed = experiment: Test B pre-/postemergence herbicide test; type: in vivo, Amaranthus retroflexus; conditions: for Pigweed plant response rating: postemergence
Outline: as §4

ducksalad = experiment: Test B flooded paddy test; type: in vivo, Heteranthera limosa; conditions: 1000 g ai/ha, scale 0 to 100 (0 no effect, 100 complete control)
Outline: as §3

large crabgrass [7] = experiment: Test B pre-/postemergence herbicide test; type: in vivo, Digitaria sanguinalis; conditions: for Crabgrass, Large plant response rating: postemergence
Outline: as §4

lambsquarters = experiment: Test B pre-/postemergence herbicide test; type: in vivo, Chenopodium album; conditions: for Lambsquarters plant response rating: postemergence
Outline: as §4

corn = experiment: Test B pre-/postemergence herbicide test; type: in vivo, Zea mays; conditions: for Corn plant response rating: postemergence
Outline: as §4

velvetleaf [8] = experiment: Test A pre-/postemergence herbicide test; type: in vivo, Abutilon theophrasti
Outline: as §2

large crabgrass [9] = experiment: Test A pre-/postemergence herbicide test; type: in vivo, Digitaria sanguinalis
Outline: as §2

barnyardgrass [10] = experiment: Test B flooded paddy test; type: in vivo, Echinochloa crus-galli; conditions: 1000 g ai/ha, scale 0 to 100 (0 no effect, 100 complete control)
Outline: as §3

giant foxtail [11] = experiment: Test B pre-/postemergence herbicide test; type: in vivo, Setaria faberi; conditions: for Foxtail, Giant plant response rating: postemergence
Outline: as §4

wild oat = experiment: Test B postemergence herbicide test; type: in vivo, Avena fatua; conditions: postemergence
Outline: as §3

Surinam grass = experiment: Test B pre-/postemergence herbicide test; type: in vivo, Urochloa decumbens; conditions: for Surinam Grass plant response rating: postemergence
Outline: as §4

velvetleaf [12] = experiment: Test B pre-/postemergence herbicide test; type: in vivo, Abutilon theophrasti; conditions: for Velvetleaf plant response rating: postemergence
Outline: as §4

morningglory [13] = experiment: Test A pre-/postemergence herbicide test; type: in vivo, Ipomoea spp.
Outline: as §2

barnyardgrass [14] = experiment: Test A pre-/postemergence herbicide test; type: in vivo, Echinochloa crus-galli
Outline: as §2

[15] = 125 g ai/ha, 0 = no effect, 100 = complete control, preemergence
[16] = 500 g ai/ha, visual rating, 0 = no effect, 100 = complete control, preemergence
[17] = 125 g ai/ha, visual rating, scale 0 (no effect) to 100 (complete control)
[18] = 500 g ai/ha, scale 0 to 100, 0 is no effect, 100 is complete control
[19] = Postemergence, 500 g ai/ha, 0 to 100 scale, 0 no effect, 100 complete control
[20] = Postemergence, 2000 g ai/ha, 0 to 100 scale, 0 no effect, 100 complete control
[21] = Preemergence, 2000 g ai/ha, visual rating, 0 to 100 scale (0 no effect, 100 complete control)
[22] = preemergence, 500 g ai/ha, visual injury, 0 to 100 scale (0 no effect, 100 complete control)

CCn1nc(C(C)(C)C)cc1C(=O)Nc1nc(C(=O)N(C)C)ccc1F [Compound 277]
0: Morningglory plant response rating (0 to 100 scale) (morningglory [1]; [15]) | Plant response rating, Morningglory (morningglory [1]; [16]) | Morningglory plant response rating (morningglory [1]; [17]) | Barnyardgrass plant response rating (0 to 100 scale) (barnyardgrass [2]; [15]) | Plant response rating, Barnyardgrass (barnyardgrass [2]; [16]) | Barnyardgrass plant response rating (barnyardgrass [2]; [17]) | Barnyardgrass plant response rating (barnyardgrass [2]; [18]) | Rice plant response rating (rice [3]) | Cocklebur plant response rating (0 to 100 scale) (cocklebur; [15]) | Cocklebur plant response rating (cocklebur; [17]) | Cocklebur plant response rating (cocklebur; [18]) | Foxtail, Giant plant response rating (giant foxtail [4]; [19]) | Plant response rating, Foxtail, Giant (giant foxtail [4]; [20]) | Foxtail, Giant plant response rating (giant foxtail [4]; [22]) | Rice plant response rating (0 to 100 scale) (rice [5]; 125 g ai/ha) | Sedge, Umbrella plant response rating [6] | Pigweed plant response rating (pigweed; [17]) | Ducksalad plant response rating (ducksalad) | Crabgrass, Large plant response rating (0 to 100 scale) (large crabgrass [7]; [15]) | Plant response rating, Crabgrass, Large (large crabgrass [7]; [16]) | Crabgrass, Large plant response rating (large crabgrass [7]; [17]) | Crabgrass, Large plant response rating (large crabgrass [7]; [18]) | Corn plant response rating (0 to 100 scale) (corn; [15]) | Plant response rating, Corn (corn; [16]) | Corn plant response rating (corn; [17]) | Crabgrass, Large plant response rating (large crabgrass [9]; [19]) | Plant response rating, Crabgrass, Large (large crabgrass [9]; [20]) | Crabgrass, Large plant response rating (large crabgrass [9]; [22]) | Barnyardgrass plant response rating (barnyardgrass [10]) | Foxtail, Giant plant response rating (0 to 100 scale) (giant foxtail [11]; [15]) | Plant response rating, Foxtail, Giant (giant foxtail [11]; [16]) | Foxtail, Giant plant response rating (giant foxtail [11]; [17]) | Foxtail, Giant plant response rating (giant foxtail [11]; [18]) | Surinam Grass plant response rating (0 to 100 scale) (Surinam grass; [15]) | Plant response rating, Surinam Grass (Surinam grass; [16]) | Surinam Grass plant response rating (Surinam grass; [17]) | Surinam Grass plant response rating (Surinam grass; [18]) | Velvetleaf plant response rating (0 to 100 scale) (velvetleaf [12]; [15]) | Morningglory plant response rating (morningglory [13]; [19]) | Plant response rating, Morningglory (morningglory [13]; [20]) | Morningglory plant response rating (morningglory [13]; [21]) | Morningglory plant response rating (morningglory [13]; [22]) | Barnyardgrass plant response rating (barnyardgrass [14]; [19]) | Barnyardgrass plant response rating (barnyardgrass [14]; [22])
35: Plant response rating, Pigweed (redroot pigweed; [20])
70: Pigweed plant response rating (redroot pigweed; [21]) | Barnyardgrass plant response rating (barnyardgrass [14]; [21])
20: Morningglory plant response rating (morningglory [1]; [18]) | Blackgrass plant response rating (blackgrass; [18]) | Wheat plant response rating (wheat; [17]) | Wheat plant response rating (wheat; [18]) | Plant response rating, Rice (rice [5]; 500 g ai/ha, visual rating) | Lambsquarters plant response rating (lambsquarters; [17]) | Oat, Wild plant response rating (wild oat; [18]) | Velvetleaf plant response rating (velvetleaf [12]; [17]) | Velvetleaf plant response rating (velvetleaf [12]; [18])
100: Plant response rating, Pigweed (pigweed; [16])
10: Pigweed plant response rating (redroot pigweed; [19]) | Blackgrass plant response rating (blackgrass; [17]) | Plant response rating, Cocklebur (cocklebur; [16]) | Pigweed plant response rating (pigweed; [18]) | Corn plant response rating (corn; [18]) | Oat, Wild plant response rating (wild oat; [17])
50: Plant response rating, Barnyardgrass (barnyardgrass [14]; [20])
45: Velvetleaf plant response rating (velvetleaf [8]; [21])
60: Pigweed plant response rating (0 to 100 scale) (pigweed; [15])
40: Pigweed plant response rating (redroot pigweed; [22]) | Lambsquarters plant response rating (0 to 100 scale) (lambsquarters; [15]) | Plant response rating, Velvetleaf (velvetleaf [12]; [16])
25: Velvetleaf plant response rating (velvetleaf [8]; [19]) | Crabgrass, Large plant response rating (large crabgrass [9]; [21])
5: Velvetleaf plant response rating (velvetleaf [8]; [22])
30: Lambsquarters plant response rating (lambsquarters; [18]) | Plant response rating, Velvetleaf (velvetleaf [8]; [20])
80: Plant response rating, Lambsquarters (lambsquarters; [16])
55: Foxtail, Giant plant response rating (giant foxtail [4]; [21])
